Data as given in the supplement of paper PMC10307832.

What was measured:
Assay in all cases: relative viability (nuclei count vs DMSO), 5 days (fraction); higher = more cells survive
[1] = compound: CCN(CCO)CCCC(C)Nc1ccnc2cc(Cl)ccc12 [Hydroxychloroquine] + O=C(CCCCCCC(=O)Nc1ccccc1)NO [Vorinostat] (partner 1 µM)
In short: (§1)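 Lung cancer cell lines were pin-tool dosed in 1536-well plates on the day after seeding, with either a lone drug or a fixed anchor-drug dose plus five library-drug doses (not always all listed) in √10 steps. Nuclei were counted on 4× images after 5 days. Relative viability is the ratio of treated-well to vehicle-well nuclei counts, with each value a median of duplicate plates.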

[2] = compound: CCN(CCO)CCCC(C)Nc1ccnc2cc(Cl)ccc12 [Hydroxychloroquine] + CC(=O)c1c(C)c2cnc(Nc3ccc(N4CCNCC4)cn3)nc2n(C2CCCC2)c1=O [Palbociclib] (partner 0.5 µM)
In short: as §1

[3] = compound: CCN(CCO)CCCC(C)Nc1ccnc2cc(Cl)ccc12 [Hydroxychloroquine] + Cc1nc(Nc2ncc(C(=O)Nc3c(C)cccc3Cl)s2)cc(N2CCN(CCO)CC2)n1 [Dasatinib] (partner 0.075 µM)
In short: as §1

[4] = compound: CCN(CCO)CCCC(C)Nc1ccnc2cc(Cl)ccc12 [Hydroxychloroquine] + Nc1nc2[nH]cc(CCc3ccc(C(=O)N[C@@H](CCC(=O)O)C(=O)O)cc3)c2c(=O)[nH]1 [Pemetrexed] (partner 0.2 µM)
In short: as §1

Cell Line	relative viability ([1]; first compound 0.5 µM)	relative viability ([1]; first compound 1.581 µM)	relative viability ([1]; first compound 5 µM)	relative viability ([1]; first compound 15.81 µM)	relative viability ([1]; first compound 50 µM)	relative viability ([2]; first compound 0.5 µM)	relative viability ([2]; first compound 1.581 µM)	relative viability ([2]; first compound 5 µM)	relative viability ([2]; first compound 15.81 µM)	relative viability ([2]; first compound 50 µM)	relative viability ([3]; first compound 0.5 µM)	relative viability ([3]; first compound 1.581 µM)	relative viability ([3]; first compound 5 µM)	relative viability ([3]; first compound 15.81 µM)	relative viability ([3]; first compound 50 µM)	relative viability ([4]; first compound 0.5 µM)	relative viability ([4]; first compound 1.581 µM)	relative viability ([4]; first compound 5 µM)	relative viability ([4]; first compound 15.81 µM)	relative viability ([4]; first compound 50 µM)
201T	0.954	0.943	1.02	0.929	1.07	0.339	0.351	0.378	0.379	0.384	0.582	0.578	0.598	0.606	0.608	0.346	0.331	0.338	0.307	0.339
A-427	0.919	0.826	0.834	0.807	0.79	0.499	0.474	0.483	0.512	0.493	0.748	0.67	0.774	0.649	0.796	0.948	1.05	0.926	0.838	1.01
ABC-1	1.33	1.19	1.11	0.934	1.19	0.726	0.776	0.909	0.793	0.714	0.543	0.644	0.521	0.562	0.565					
BEN	0.632	0.563	0.638	0.635	0.608	0.482	0.434	0.439	0.473	0.469	0.273	0.332	0.316	0.267	0.331	0.928	0.719	0.733	0.855	0.684
CAL-12T	0.865	0.725	0.684	0.873	0.979	0.56	0.383	0.462	0.478	0.595	0.573	0.399	0.352	0.351	0.404	1.15	1.18	1.31	1.27	1.33
COR-L23	0.409	0.455	0.545	0.453	0.415	0.215	0.232	0.309	0.299	0.307	0.472	0.543	0.533	0.421	0.534	0.192	0.189	0.21	0.211	0.186
COR-L 105	0.87	0.807	0.628	0.743	0.804	0.41	0.354	0.405	0.391	0.392	0.284	0.384	0.34	0.298	0.272	1.12	1.01	0.967	1.05	1.08
ChaGo-K-1	0.806	0.785	0.778	0.759	0.711	0.967	0.942	0.912	0.975	0.989	0.626	0.593	0.537	0.593	0.626	0.417	0.259	0.291	0.262	0.276
EKVX	0.688	0.609	0.677	0.767	0.648	0.354	0.374	0.377	0.74	0.412	0.512	0.502	0.495	0.535	0.337	0.385	0.394	0.32	0.385	0.423
EMC-BAC-2	0.492	0.443	0.375	0.425	0.328	0.52	0.45	0.519	0.514	0.523	0.309	0.381	0.347	0.329	0.345	0.49	0.439	0.434	0.313	0.411
EPLC-272H		0.359	0.433	0.392	0.488	0.281	0.34	0.309	0.285	0.295	0.342	0.441	0.333	0.335	0.347		0.331	0.325	0.341	0.352
H3255	0.741	0.715	0.716	0.858	0.762	0.335	0.32	0.303	0.318	0.312	0.367	0.386	0.3	0.281	0.369	0.566	0.603	0.543	0.586	0.477
HARA	0.516	0.482	0.55	0.603	0.594	0.239	0.292	0.26	0.302	0.23	0.287	0.262	0.253	0.29	0.299	0.286	0.231	0.233	0.263	0.251
HCC-15	0.796	0.828	0.902	0.9	0.775	0.754	0.762	0.745	0.731	0.574	0.621	0.578	0.581	0.609	0.627	0.231	0.241	0.205	0.226	0.231
HCC-44	1.1	1.09	1.14	1.1	1.14	0.952	1.03	1.01	1.04	1.03						0.635	0.709	0.653	0.655	0.659
HCC-78	0.632	0.381	0.438	0.446	0.509	0.469	0.48	0.483	0.527	0.451	0.529	0.421	0.495	0.374	0.375	0.927	0.973	0.902	0.891	0.959
HCC-366	0.339	0.232	0.301	0.338	0.434	0.324	0.406	0.366	0.381	0.665	0.739	0.731	0.624	0.768	0.719	0.157	0.151	0.14	0.18	0.177
HCC-827	0.811	0.873	0.786	0.759	0.571	0.413	0.456	0.467	0.466	0.521	0.306	0.378	0.312	0.388	0.314	0.225	0.275	0.259	0.259	0.23

Cell Line	relative viability ([1]; first compound 0.5 µM)	relative viability ([1]; first compound 1.581 µM)	relative viability ([1]; first compound 5 µM)	relative viability ([1]; first compound 15.81 µM)	relative viability ([1]; first compound 50 µM)	relative viability ([2]; first compound 0.5 µM)	relative viability ([2]; first compound 1.581 µM)	relative viability ([2]; first compound 5 µM)	relative viability ([2]; first compound 15.81 µM)	relative viability ([2]; first compound 50 µM)	relative viability ([3]; first compound 0.5 µM)	relative viability ([3]; first compound 1.581 µM)	relative viability ([3]; first compound 5 µM)	relative viability ([3]; first compound 15.81 µM)	relative viability ([3]; first compound 50 µM)	relative viability ([4]; first compound 0.5 µM)	relative viability ([4]; first compound 1.581 µM)	relative viability ([4]; first compound 5 µM)	relative viability ([4]; first compound 15.81 µM)	relative viability ([4]; first compound 50 µM)
HOP-62	0.584	0.628	0.573	0.574	0.69	0.486	0.429	0.444	0.487	0.548	0.57	0.601	0.717	0.636	0.58	0.331	0.312	0.33	0.344	0.343
IA-LM	1.02	1.13	1.03		1.06															
LC-2-ad	0.707	0.691	0.694	0.702	0.697	0.454	0.454	0.486	0.555	0.476	0.56	0.684	0.603	0.639	0.595	0.272	0.273	0.244	0.261	0.282
LCLC-97TM1	0.778	0.742	0.772	0.766	0.797	0.223	0.227	0.313	0.275	0.21	0.866	0.896	0.903	0.841	0.808	0.199	0.226	0.169	0.179	0.175
LCLC-103H	0.859	0.718	0.752	0.829	0.793	0.498	0.496	0.524	0.461	0.469	0.367	0.405	0.523	0.547	0.543	0.439	0.504	0.368	0.455	0.473
LK-2	0.318	0.274	0.248	0.299	0.294	0.884	0.832	0.762	0.809	0.697	0.258	0.261		0.294	0.357	0.299	0.261	0.256	0.274	0.206
LOU-NH91	0.89	0.72	0.88	0.933	0.868	0.534	0.562	0.5	0.55	0.531	0.559	0.453	0.588	0.581	0.593	0.359	0.413	0.451	0.386	0.427
LU99A	0.559	0.474	0.465	0.435	0.507	0.356	0.383	0.377	0.444	0.473	0.47	0.502	0.714	0.613	0.612	0.179	0.194	0.157	0.198	0.206
LXF-289	0.767	0.795	0.723	0.757	0.709	0.577	0.588	0.656	0.575	0.602	0.234	0.212	0.217	0.202	0.195	0.886	0.908	0.92	0.929	0.927
NCI-H23	0.674	0.566	0.56	0.626	0.67	0.499	0.487	0.548	0.464	0.477	0.87	0.683	0.879	0.807	0.795	1.21	0.663	0.609	0.56	0.74
NCI-H322M	0.849	0.877	0.83	0.839	0.991	0.484	0.43	0.431	0.482	0.457	0.256	0.248	0.258	0.253	0.263	0.639	0.609	0.601	0.608	0.592
NCI-H358	0.695	0.731	0.72	0.673	0.655	0.13	0.126	0.137	0.122	0.137	0.177	0.131	0.139	0.144	0.155	0.164	0.166	0.179	0.161	0.179
NCI-H441	0.734	0.677	0.781	1.07	0.693	0.217	0.187	0.185	0.192	0.204	0.608	0.559	0.66	0.496	0.684	0.234	0.258	0.284	0.227	0.278
NCI-H596	0.612	0.765	0.523	0.398	0.587						0.56	0.587	0.59	0.655	0.591	0.547	0.481	0.45	0.479	0.489
NCI-H727	1.07	1.22	1.23	0.969	1.33	0.643	0.552	0.561	0.661	0.688	0.337	0.379	0.471	0.43	0.457					
NCI-H1563											0.509	0.501	0.449	0.475	0.421	0.888	0.692	0.724	0.78	0.875
NCI-H1648	0.458	0.44	0.422	0.68	0.503	0.277	0.264	0.266	0.211	0.288						0.844	0.785	0.734	0.859	0.694
NCI-H1792						0.696	0.683	0.584	0.657	0.68	0.922	0.936	0.759	0.825	0.711	0.694	0.831	0.755	0.641	0.859
